Entries after “also recorded” stand apart in the source; their conditions may differ.
How the values were obtained:
[1] = tested on: 53BP1 tandem Tudor domain (residues 1490-1608); assay: Binding of GST-fused 53BP1 tandem Tudor domain to modified histone peptides on Celluspots peptide arrays; parameters: species or system human; conditions: 53BP1 tandem Tudor GST fusion 1 μM, room temperature, 2 hours, interaction buffer pH 7.5, ECL, tested at least two times
Method: (§1) In the present study, the binding specificities of seven known reading domains were analyzed using Celluspots peptide arrays comprising 384 peptides from 8 different regions of the N-terminal histone tails, viz. H3 1-19, 7-26, 16-35 and 26-45, H4 1-19 and 11-30, H2A 1-19 and H2B 1-19. The arrays are commercially available from Active Motif and feature 59 post-translational modifications (most of them identified, some of them hypothetical) in many different combinations (Additional file 1). Binding of the GST fused reading domain proteins to peptide arrays was visualized using an anti-GST antibody, followed by a secondary anti-goat-HRP antibody and ECL detection system. […] In case of weak signals, the experiment was repeated with higher protein concentration. In case of an overexposed image, the protein concentration was reduced. For quality control, each glass slide contains two identical copies of the array. […] The sequences encoding human HP1ß full length (residues 1-185), the Chromo domain of human MPP8 (residues 58-112), the double Tudor domain of human JMJ[…] (residues 856-1047), the tandem Tudor domain of human 53BP1 (residues 1490-1608), the PHD finger of human Rag2 (residues 311-520) and the second Bromo domain of human BRD2 (residues 348-455) were amplified from cDNA derived from HEK293 cells and cloned as GST fusion proteins into the pGEX-6P-2 vector (GE Healthcare).

[2] = tested on: 53BP1 tandem Tudor domain; conditions: ref [14],[15]; cited from earlier work
Description: (§2) The Tudor domain folds into a ß-sandwich flanked by one α-helix.

[3] = tested on: Dnmt3a PWWP domain (residues 279-420); assay: Binding of GST-fused Dnmt3a PWWP domain to modified histone peptides on Celluspots peptide arrays; parameters: species or system murine; conditions: Dnmt3a PWWP GST fusion 50 nM, room temperature, 2 hours, interaction buffer pH 7.5, ECL, tested at least two times
Method: In the present study, the binding specificities of seven known reading domains were analyzed using Celluspots peptide arrays comprising 384 peptides from 8 different regions of the N-terminal histone tails, viz. H3 1-19, 7-26, 16-35 and 26-45, H4 1-19 and 11-30, H2A 1-19 and H2B 1-19. The arrays are commercially available from Active Motif and feature 59 post-translational modifications (most of them identified, some of them hypothetical) in many different combinations (Additional file 1). Binding of the GST fused reading domain proteins to peptide arrays was visualized using an anti-GST antibody, followed by a secondary anti-goat-HRP antibody and ECL detection system. The domains were selected to represent the different folds of reading domains and show a wide range of specificities. […] Each reading domain was tested at least two times on the peptide arrays to ensure that the results are reliable. […] The binding intensities for each tested reading domain were analyzed with the Array Analyze program, which calculates the average of the binding intensities to corresponding peptide spots in both copies of the array and prepares a graphical output - one scatter plot illustrating the binding intensities observed at corresponding spots in both copies of the array and a bar diagram showing the distribution of deviations of the binding intensities to the corresponding spots. […]

[4] = tested on: JMJD2A double Tudor domain (residues 856-1047); assay: Binding of GST-fused JMJD2A double Tudor domain to modified histone peptides on Celluspots peptide arrays; parameters: species or system human; conditions: JMJD2A double Tudor GST fusion 10 nM, room temperature, 2 hours, interaction buffer pH 7.5, ECL, tested at least two times
Method: as §1

[5] = tested on: JMJD2A double Tudor domain; conditions: ref [14],[17],[18]; cited from earlier work
Description: as §2

[6] = tested on: Dnmt3a PWWP domain; conditions: SPOT arrays and follow-up experiments; ref [19]; cited from earlier work
Method: These binding modules are about 50 amino acids long and contain two binding sites for zinc ions. The PHD finger of Rag2, an essential component of the Rag1/2 V(D)J recombinase, which mediates antigen-receptor gene assembly, interact ... || Another reading domain which was tested on the Celluspots peptide arrays is the PWWP domain of Dnmt3a. […] Since there is only one H3K36me3-modified peptide spot, the effect of enhancing or inhibiting secondary modifications could not be studied in this case. […] Since peptide arrays are screening tools, unexpected or novel results need to be confirmed by equilibrium peptide binding experiments using purified peptides. In our experience, such studies often confirmed results from peptide arrays. For example in the case of the Dnmt3a PWWP domain, binding ...

Substance: H4K20me1: H4K20me1 modified histone tail peptide on Celluspots array
- binding to modified histone tail peptides (array signal) [1]: not observed on the peptide array
- interaction with 53BP1 tandem Tudor domain (literature) [2]: reported to interact

Substance: H3K36me2: H3K36me2 modified histone tail peptide on Celluspots array
- binding to modified histone tail peptides (array signal) [3]: weaker binding signal in comparison to H3K36me3

Substance: H4K20me2: H4K20me2 modified histone tail peptide on Celluspots array
- binding to modified histone tail peptides (array signal) [4]: next best bound modification on the peptide array
- binding to JMJD2A double Tudor domain (literature) [5]: interact preferentially; also recorded: reported to bind
- interaction with 53BP1 tandem Tudor domain (literature) [2]: reported to interact; also recorded: shown to interact

Substance: H3K36me3: H3K36me3-modified peptide spot on Celluspots array (only one)
- binding to modified histone tail peptides (array signal) [3]: specifically bound
- interaction with Dnmt3a PWWP domain (literature) [6]: specific interaction; also recorded: could be verified by peptide binding, pull-down of native nucleosomes and functional DNA methylation experiments; also recorded: shown to read H3K36me3
